From US8980830B2 (priority 2007, dated 2015)
Where two headings read alike, the source gives them in different places. Blank lines part the entries; values can stand above or below the compound they belong to. Bridge positions count the residues as written; N and C are the ends. Square brackets hold non-standard residues; d marks the D form. Ends that are not written are not given here. Peptide text beside a SMILES is read from it. MCA = alpha-methylhydrocinnamic acid (2-methyl-3-phenylpropanoic acid); Abu(4-SO3H) = N[C@@H](CCS(=O)(=O)O)C(=O)O; PhLac = O=C(O)[C@@H](O)Cc1ccccc1; Aad = N[C@@H](CCCC(=O)O)C(=O)O

Tests used:
GLP-1 Receptor = GLP-1 Receptor (Homo sapiens, UniProt P43220); experiment: Functional assay, cAMP induction (luciferase reporter, HEK293) at GLP-1 receptor; type: cell-based; conditions: GLP-1 agonism EC50 (nM), Table 17
Glucagon Receptor = Glucagon Receptor (Homo sapiens, UniProt P47871); experiment: cAMP inhibition: antagonism of glucagon-induced cAMP at glucagon receptor; type: cell-based; parameters: expressed in transfected cells; host or cells: HEK293; conditions: for IC50 (nM) (cAMP, inhibit 0.2 mM Glucagon): Table 12
Glucagon Receptor, sequence (P47871 26-477): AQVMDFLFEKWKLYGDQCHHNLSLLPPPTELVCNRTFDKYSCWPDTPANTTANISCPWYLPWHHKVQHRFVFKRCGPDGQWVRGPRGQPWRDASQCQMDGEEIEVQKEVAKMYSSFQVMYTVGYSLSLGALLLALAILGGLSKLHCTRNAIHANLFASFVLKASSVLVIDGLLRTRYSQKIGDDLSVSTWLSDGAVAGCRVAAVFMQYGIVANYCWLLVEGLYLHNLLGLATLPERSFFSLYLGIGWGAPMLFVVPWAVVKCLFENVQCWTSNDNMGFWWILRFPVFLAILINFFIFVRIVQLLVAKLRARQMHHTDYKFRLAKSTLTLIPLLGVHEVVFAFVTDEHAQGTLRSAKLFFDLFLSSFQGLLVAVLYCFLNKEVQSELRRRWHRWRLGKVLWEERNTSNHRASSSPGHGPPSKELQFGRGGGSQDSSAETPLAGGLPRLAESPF

GLP-1 Receptor, sequence (P43220 24-463): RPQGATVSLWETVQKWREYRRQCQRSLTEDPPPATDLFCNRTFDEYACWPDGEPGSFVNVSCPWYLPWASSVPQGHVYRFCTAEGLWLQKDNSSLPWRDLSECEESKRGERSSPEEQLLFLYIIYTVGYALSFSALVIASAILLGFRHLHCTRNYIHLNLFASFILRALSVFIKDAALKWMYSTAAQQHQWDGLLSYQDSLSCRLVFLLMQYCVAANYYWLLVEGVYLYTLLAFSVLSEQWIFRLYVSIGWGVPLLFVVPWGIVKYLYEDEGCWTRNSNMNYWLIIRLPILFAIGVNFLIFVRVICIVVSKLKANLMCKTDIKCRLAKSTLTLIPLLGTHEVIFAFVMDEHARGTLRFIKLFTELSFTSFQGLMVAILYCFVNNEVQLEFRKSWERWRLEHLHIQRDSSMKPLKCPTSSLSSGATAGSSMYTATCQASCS

Compound: CSCC[C@H](NC(=O)[C@H](CC(C)C)NC(=O)[C@H](Cc1c[nH]c2ccccc12)NC(=O)[C@H](CCC(N)=O)NC(=O)[C@@H](NC(=O)[C@H](Cc1ccccc1)NC(=O)[C@H](CC(=O)O)NC(=O)[C@H](CCC(N)=O)NC(=O)[C@H](C)NC(=O)[C@H](CCCNC(=N)N)NC(=O)[C@H](CCCNC(=N)N)NC(=O)[C@H](CO)NC(=O)[C@H](CC(=O)O)NC(=O)[C@H](CC(C)C)NC(=O)[C@H](Cc1ccc(O)cc1)NC(=O)[C@H](CCCCN)NC(=O)[C@H](CO)NC(=O)[C@H](Cc1ccc(O)cc1)NC(=O)[C@H](CCCC(=O)O)NC(=O)[C@H](CO)NC(=O)[C@@H](NC(=O)[C@@H](N)Cc1ccccc1)[C@@H](C)O)C(C)C)C(=O)N[C@@H](CC(N)=O)C(=O)N[C@H](C(N)=O)[C@@H](C)O [[hGlu^9]Glucagon(aa6-29)-NH2] (H-FTS[Aad]YSKYLDSRRAQDFVQWLMNT-NH2; N-terminus assumed)
cAMP pA2 (Glucagon Receptor; Table 9): 6.27 ± 0.11

Compound: FTSDYSKYLDSRRAQDFVQWLMNT-NH2 [Glucagon(aa6-29)-NH2]
cAMP pA2 (Glucagon Receptor; Table 9): 6.94 ± 0.63

Compound: FTSEYSKYLDERRAQDFVQWLMNTGPSSGAPPPS-NH2 [E9, K12, E16]
IC50 (Glucagon Receptor; Glucagon antagonism IC50 (nM, inhibit 0.2-0.8 nM glucagon), Table 16, combined results of three assays): 762 ± 127 nM

Compound: FTSKYSKYLDSRRAQDFVQWLMNT-NH2 [[Lys^9]Glucagon(aa6-29)-NH2]
cAMP pA2 (Glucagon Receptor): 6.58 ± 0.60

Compound: [MCA^6, E^9, C^24(20kDaPEG)]Glucagon(aa6-29)-NH2 ([MCA]TSEYSKYLDSRRAQDFVC(PEG 20 kDa)WLMNT-NH2)
IC50 (nM) (cAMP, inhibit 0.2 mM Glucagon) (Glucagon Receptor): no antagonism

Compound: [PLA6, E9,E16K20(Lactam), C24(20 kDa)]G(6-29) ([PhLac]TSEYSKYLDERRAKDFVC(PEG 20 kDa)WLMNT; lactam 11-15)
Glucagon antagonism IC50(nM) (inhibit 0.2-0.8 nM glucagon) (Glucagon Receptor): Not detect

Compound: [PLA6, K12E16(Lactam), D28,CEX-C40(20 kDa)]G(6-40) ([PhLac]TSDYSKYLDERRAQDFVQWLMDTGPSSGAPPPSC(PEG 20 kDa); lactam 7-11)
Glucagon antagonism IC50(nM) (inhibit 0.2-0.8 nM glucagon) (Glucagon Receptor): Not antagonist (n = 1)

Second part, the compound after the results:

EC50 (GLP-1 Receptor): 289 ± 149 nM
Compound: CSCC[C@@H]1NC(=O)[C@H](CC(C)C)NC(=O)[C@H](Cc2c[nH]c3ccccc23)NC(=O)[C@@H](NC(=O)[C@@H](NC(=O)[C@H](Cc2ccccc2)NC(=O)[C@H](CC(=O)O)NC(=O)[C@H](CCC(N)=O)NC(=O)[C@H](C)NC(=O)[C@H](CCCNC(=N)N)NC(=O)[C@H](CCCNC(=N)N)NC(=O)[C@H](CCC(=O)O)NC(=O)[C@H](CC(=O)O)NC(=O)[C@H](CC(C)C)NC(=O)[C@H](Cc2ccc(O)cc2)NC(=O)[C@H](CCCCN)NC(=O)[C@H](CO)NC(=O)[C@H](Cc2ccc(O)cc2)NC(=O)[C@H](CC(=O)O)NC(=O)[C@H](CO)NC(=O)[C@@H](NC(=O)[C@@H](O)Cc2ccccc2)[C@@H](C)O)C(C)C)CCC(=O)NCCCC[C@@H](C(=O)N[C@H](C(N)=O)[C@@H](C)O)NC1=O (H-[PhLac]TSDYSKYLDERRAQDFVEWLMKT-NH2; lactam 19-23)

cAMP pA2 (Glucagon Receptor; Table 9): 7.16 ± 0.51
Compound: CSCC[C@H](NC(=O)[C@H](CC(C)C)NC(=O)[C@H](Cc1c[nH]c2ccccc12)NC(=O)[C@H](CCC(N)=O)NC(=O)[C@@H](NC(=O)[C@H](Cc1ccccc1)NC(=O)[C@H](CC(=O)O)NC(=O)[C@H](CCC(N)=O)NC(=O)[C@H](C)NC(=O)[C@H](CCCNC(=N)N)NC(=O)[C@H](CCCNC(=N)N)NC(=O)[C@H](CO)NC(=O)[C@H](CC(=O)O)NC(=O)[C@H](CC(C)C)NC(=O)[C@H](Cc1ccc(O)cc1)NC(=O)[C@H](CCCCN)NC(=O)[C@H](CO)NC(=O)[C@H](Cc1ccc(O)cc1)NC(=O)[C@H](CCS(=O)(=O)O)NC(=O)[C@H](CO)NC(=O)[C@@H](NC(=O)[C@@H](N)Cc1ccccc1)[C@@H](C)O)C(C)C)C(=O)N[C@@H](CC(N)=O)C(=O)N[C@H](C(N)=O)[C@@H](C)O [[hCys^9(SO3H)]Glucagon(aa6-29)-NH2] (H-FTS[Abu(4-SO3H)]YSKYLDSRRAQDFVQWLMNT-NH2; N-terminus assumed)

IC50 (nM) (cAMP, inhibit 0.2 mM Glucagon) (Glucagon Receptor): no antagonism
Compound: [PLA^6, C^8(1.2kDaPEG), E^9]Glucagon(aa6-29)-NH2 ([PhLac]TC(PEG 1.2 kDa)EYSKYLDSRRAQDFVQWLMNT-NH2)
